Experimental data taken from US10350271B2, “Lipidated peptides for lowering blood glucose” (USTAV ORGANICKE CHEMIE A BIOCHEMIE AKADEMIE VED CR, V.V.I., priority 2014, dated 2019).
Square brackets hold non-standard residues; d marks the D form. Peptide text beside a SMILES is read from it. * marks the point of attachment. Phe(4-NO2) = N[C@@H](Cc1ccc([N+](=O)[O-])cc1)C(=O)O; Phe(3,4-Cl2) = N[C@@H](Cc1ccc(Cl)c(Cl)c1)C(=O)O; Phe(F5) = N[C@@H](Cc1c(F)c(F)c(F)c(F)c1F)C(=O)O; Palmitoyl = CCCCCCCCCCCCCCCC(=O)*; Myristoyl = CCCCCCCCCCCCCC(=O)*; Nle = CCCC[C@H](N)C(=O)O

Key:
[1] = molecular target: T1, human PrRP receptor GPR10 (Homo sapiens, UniProt P49683); assay: Competitive binding in CHO cells transfected with human GPR10 (human 125I-PrRP31); settings: for Ki: CHO cells, human 125I-PrRP31, read-out: Ki, GPR10 human receptor transfected in CHO cells; for % of PrRP31, GPR10 human receptor transfected in CHO cells: affinity relative to PrRP31
T1 construct: host or cells: CHO cells
T1 sequence (P49683 1-370): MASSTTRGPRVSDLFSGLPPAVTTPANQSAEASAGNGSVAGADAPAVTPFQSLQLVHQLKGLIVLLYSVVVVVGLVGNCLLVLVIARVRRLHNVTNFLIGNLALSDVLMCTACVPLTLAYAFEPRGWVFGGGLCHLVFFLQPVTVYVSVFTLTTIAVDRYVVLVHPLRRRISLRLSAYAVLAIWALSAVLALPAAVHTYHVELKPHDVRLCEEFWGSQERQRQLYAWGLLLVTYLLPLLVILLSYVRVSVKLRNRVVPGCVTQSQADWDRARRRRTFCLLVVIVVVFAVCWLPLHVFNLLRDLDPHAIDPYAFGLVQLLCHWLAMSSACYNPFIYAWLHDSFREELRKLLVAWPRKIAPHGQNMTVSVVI
How it was run: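 GPR10-transfected CHO cells (40-80 thousand/well) incubated 60 min at room temperature with 5×10^-11 mol·l^-1 human 125I-PrRP31 and unlabeled analog at 10^-11 to 10^-4 mol·l^-1 in Tris binding buffer pH 7.4. Cells solubilized in 0.1 mol/l NaOH, γ-counted; one-site nonlinear regression fit.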

[2] = test system: C57BL/6 mice; assay: Food intake in fasted mice after SC injection; format: in vivo; settings: 5 mg/kg SC, 45 min after injection
How it was run: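 Overnight-fasted animals (food removed 17 h before dosing, water available) in individual cages got saline, PrRP or lipidated PrRP analogs SC at 1-10 mg/kg.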

[3] = molecular target: T2, rat PrRP receptor (Rattus norvegicus, UniProt Q64121); assay: Competitive binding in RC-4B/C rat pituitary cells (125I-rat PrRP31); settings: for Ki: RC-4B/C cells, displacement of 125I-rat PrRP31, read-out: Ki, RC-4B/C rat pituitary cells ^25I-rat PrRP31; for % of PrRP31, RC-4B/C rat pituitary cells: affinity relative to PrRP31
T2 construct: host or cells: RC-4B/C rat pituitary cell line
T2 sequence (Q64121 1-370): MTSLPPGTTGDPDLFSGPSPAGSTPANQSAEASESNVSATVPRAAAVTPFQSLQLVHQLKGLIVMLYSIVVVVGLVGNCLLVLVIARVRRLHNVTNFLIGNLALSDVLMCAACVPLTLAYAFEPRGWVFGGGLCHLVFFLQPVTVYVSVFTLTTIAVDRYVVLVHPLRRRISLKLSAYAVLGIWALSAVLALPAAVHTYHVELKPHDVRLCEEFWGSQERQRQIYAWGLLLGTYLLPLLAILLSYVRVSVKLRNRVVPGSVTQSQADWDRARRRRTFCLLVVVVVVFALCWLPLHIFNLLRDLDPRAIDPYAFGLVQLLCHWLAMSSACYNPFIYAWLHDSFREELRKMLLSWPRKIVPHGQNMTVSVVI
How it was run: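 Intact rat pituitary RC-4B/C cells incubated 60 min at room temperature with […] rat 125I-PrRP31 and unlabeled analog (10^−11 to 10^−4 mol·l^−1) in HEPES pH 7.4 buffer. Cell-bound radioactivity γ-counted after NaOH lysis; one-site competition fit.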

Structure (SMILES)	Ki [1]	% of PrRP31, GPR10 human receptor transfected in CHO cells [1]	Food intake in mice % of saline-treated group [2]	Ki [3]	% of PrRP31, RC-4B/C rat pituitary cells [3]
CCCCCCCCCCCCCC(=O)N[C@@H](CO)C(=O)N[C@@H](CCCNC(=N)N)C(=O)N[C@@H](C)C(=O)N[C@@H](Cc1c[nH]cn1)C(=O)N[C@@H](CCC(N)=O)C(=O)N[C@@H](Cc1c[nH]cn1)C(=O)N[C@@H](CO)C(=O)N[C@@H](CCCC)C(=O)N[C@@H](CCC(=O)O)C(=O)N[C@H](C(=O)N[C@@H](CCCNC(=N)N)C(=O)N[C@H](C(=O)N1CCC[C@H]1C(=O)N[C@@H](CC(=O)O)C(=O)N[C@H](C(=O)N[C@@H](CC(N)=O)C(=O)N1CCC[C@H]1C(=O)N[C@@H](C)C(=O)N[C@@H](Cc1c[nH]c2ccccc12)C(=O)N[C@@H](Cc1ccc(O)cc1)C(=O)N[C@H](C(=O)NCC(=O)N[C@@H](CCCNC(=N)N)C(=O)NCC(=O)N[C@H](C(=O)N[C@@H](CCCNC(=N)N)C(=O)N1CCC[C@H]1C(=O)N[C@H](C(=O)NCC(=O)N[C@@H](CCCNC(=N)N)C(=O)N[C@@H](Cc1ccc(Cl)c(Cl)c1)C(N)=O)C(C)C)[C@@H](C)CC)[C@@H](C)O)[C@@H](C)CC)[C@@H](C)O)[C@@H](C)O [Analog 14] (Myristoyl-SRAHQHS[Nle]ETRTPDINPAWYTGRGIRPVGR[Phe(3,4-Cl2)]-NH2)	0.95 ± 0.33 nM	409%	13%	1.79 ± 1.02 nM	275%
CCCCCCCCCCCCCCCC(=O)N[C@@H](CO)C(=O)N[C@@H](CCCNC(=N)N)C(=O)N[C@@H](C)C(=O)N[C@@H](Cc1c[nH]cn1)C(=O)N[C@@H](CCC(N)=O)C(=O)N[C@@H](Cc1c[nH]cn1)C(=O)N[C@@H](CO)C(=O)N[C@@H](CCCC)C(=O)N[C@@H](CCC(=O)O)C(=O)N[C@H](C(=O)N[C@@H](CCCNC(=N)N)C(=O)N[C@H](C(=O)N1CCC[C@H]1C(=O)N[C@@H](CC(=O)O)C(=O)N[C@H](C(=O)N[C@@H](CC(N)=O)C(=O)N1CCC[C@H]1C(=O)N[C@@H](C)C(=O)N[C@@H](Cc1c[nH]c2ccccc12)C(=O)N[C@@H](Cc1ccc(O)cc1)C(=O)N[C@H](C(=O)NCC(=O)N[C@@H](CCCNC(=N)N)C(=O)NCC(=O)N[C@H](C(=O)N[C@@H](CCCNC(=N)N)C(=O)N1CCC[C@H]1C(=O)N[C@H](C(=O)NCC(=O)N[C@@H](CCCNC(=N)N)C(=O)N[C@@H](Cc1ccc(Cl)c(Cl)c1)C(N)=O)C(C)C)[C@@H](C)CC)[C@@H](C)O)[C@@H](C)CC)[C@@H](C)O)[C@@H](C)O [Analog 15] (Palmitoyl-SRAHQHS[Nle]ETRTPDINPAWYTGRGIRPVGR[Phe(3,4-Cl2)]-NH2)	1.05 ± 0.41 nM	370%	5%	1.3 ± 0.29 nM	379%
CCCCCCCCCCCCCCCC(=O)N[C@@H](CO)C(=O)N[C@@H](CCCNC(=N)N)C(=O)N[C@@H](C)C(=O)N[C@@H](Cc1c[nH]cn1)C(=O)N[C@@H](CCC(N)=O)C(=O)N[C@@H](Cc1c[nH]cn1)C(=O)N[C@@H](CO)C(=O)N[C@@H](CCCC)C(=O)N[C@@H](CCC(=O)O)C(=O)N[C@H](C(=O)N[C@@H](CCCNC(=N)N)C(=O)N[C@H](C(=O)N1CCC[C@H]1C(=O)N[C@@H](CC(=O)O)C(=O)N[C@H](C(=O)N[C@@H](CC(N)=O)C(=O)N1CCC[C@H]1C(=O)N[C@@H](C)C(=O)N[C@@H](Cc1c[nH]c2ccccc12)C(=O)N[C@@H](Cc1ccc(O)cc1)C(=O)N[C@H](C(=O)NCC(=O)N[C@@H](CCCNC(=N)N)C(=O)NCC(=O)N[C@H](C(=O)N[C@@H](CCCNC(=N)N)C(=O)N1CCC[C@H]1C(=O)N[C@H](C(=O)NCC(=O)N[C@@H](CCCNC(=N)N)C(=O)N[C@@H](Cc1ccc([N+](=O)[O-])cc1)C(N)=O)C(C)C)[C@@H](C)CC)[C@@H](C)O)[C@@H](C)CC)[C@@H](C)O)[C@@H](C)O [Analog 18] (Palmitoyl-SRAHQHS[Nle]ETRTPDINPAWYTGRGIRPVGR[Phe(4-NO2)]-NH2)	0.77 ± 0.28 nM	505%	0.7%	0.58 ± 0.1 nM	850%
CCCCCCCCCCCCCC(=O)N[C@@H](CO)C(=O)N[C@@H](Cc1c[nH]cn1)C(=O)N[C@@H](CCC(N)=O)C(=O)N[C@@H](CCCNC(=N)N)C(=O)N1CCC[C@H]1C(=O)N[C@@H](C)C(=O)N[C@@H](CC(=O)O)C(=O)N[C@H](C(=O)N[C@@H](Cc1c[nH]cn1)C(=O)N[C@@H](Cc1c[nH]c2ccccc12)C(=O)N[C@@H](Cc1ccc(O)cc1)C(=O)N1CCC[C@H]1C(=O)N[C@@H](CCCNC(=N)N)C(=O)NCC(=O)N[C@@H](CCCC)C(=O)N[C@@H](Cc1ccccc1)C(=O)N1CCC[C@H]1C(=O)N[C@H](C(=O)N[C@H](C(=O)NCC(=O)N[C@@H](CCCNC(=N)N)C(=O)N[C@H](C(=O)N[C@H](C(=O)N[C@@H](C)C(=O)N[C@@H](CCCNC(=N)N)C(=O)N[C@@H](CC(N)=O)C(=O)NCC(=O)N[C@@H](CCC(=O)O)C(=O)N[C@H](C(=O)N[C@@H](CO)C(=O)N[C@@H](CCCNC(=N)N)C(=O)O)C(C)C)[C@@H](C)O)[C@@H](C)CC)[C@@H](C)CC)[C@@H](C)O)[C@@H](C)O [Analog 20] (Myristoyl-SHQRPADTHWYPRG[Nle]FPTIGRITARNGEVSR-OH; C-terminus assumed)	262 ± 55.4 nM	1.5%	100%	123 ± 16.1 nM	4.6%
CCCCCCCCCCCCCCCC(=O)N[C@@H](CO)C(=O)N[C@@H](CCCNC(=N)N)C(=O)N[C@@H](C)C(=O)N[C@@H](Cc1c[nH]cn1)C(=O)N[C@@H](CCC(N)=O)C(=O)N[C@@H](Cc1c[nH]cn1)C(=O)N[C@@H](CO)C(=O)N[C@@H](CCCC)C(=O)N[C@@H](CCC(=O)O)C(=O)N[C@H](C(=O)N[C@@H](CCCNC(=N)N)C(=O)N[C@H](C(=O)N1CCC[C@H]1C(=O)N[C@@H](CC(=O)O)C(=O)N[C@H](C(=O)N[C@@H](CC(N)=O)C(=O)N1CCC[C@H]1C(=O)N[C@@H](C)C(=O)N[C@@H](Cc1c[nH]c2ccccc12)C(=O)N[C@@H](Cc1ccc(O)cc1)C(=O)N[C@H](C(=O)NCC(=O)N[C@@H](CCCNC(=N)N)C(=O)NCC(=O)N[C@H](C(=O)N[C@@H](CCCNC(=N)N)C(=O)N1CCC[C@H]1C(=O)N[C@H](C(=O)NCC(=O)N[C@@H](CCCNC(=N)N)C(=O)N[C@@H](Cc1c(F)c(F)c(F)c(F)c1F)C(N)=O)C(C)C)[C@@H](C)CC)[C@@H](C)O)[C@@H](C)CC)[C@@H](C)O)[C@@H](C)O [Analog 22] (Palmitoyl-SRAHQHS[Nle]ETRTPDINPAWYTGRGIRPVGR[Phe(F5)]-NH2)	–	203%	41%	–	966%
CCCCCCCCCCCCCCCC(=O)N[C@@H](CO)C(=O)N[C@@H](CCCNC(=N)N)C(=O)N[C@@H](C)C(=O)N[C@@H](Cc1c[nH]cn1)C(=O)N[C@@H](CCC(N)=O)C(=O)N[C@@H](Cc1c[nH]cn1)C(=O)N[C@@H](CO)C(=O)N[C@@H](CCCC)C(=O)N[C@@H](CCC(=O)O)C(=O)N[C@H](C(=O)N[C@@H](CCCNC(=N)N)C(=O)N[C@H](C(=O)N1CCC[C@H]1C(=O)N[C@@H](CC(=O)O)C(=O)N[C@H](C(=O)N[C@@H](CC(N)=O)C(=O)N1CCC[C@H]1C(=O)N[C@@H](C)C(=O)N[C@@H](Cc1c[nH]c2ccccc12)C(=O)N[C@@H](Cc1ccc(O)cc1)C(=O)N[C@H](C(=O)NCC(=O)N[C@@H](CCCNC(=N)N)C(=O)NCC(=O)N[C@H](C(=O)N[C@@H](CCCNC(=N)N)C(=O)N1CCC[C@H]1C(=O)N[C@H](C(=O)NCC(=O)N[C@@H](CCCNC(=N)N)C(=O)N[C@@H](Cc1ccc(O)cc1)C(N)=O)C(C)C)[C@@H](C)CC)[C@@H](C)O)[C@@H](C)CC)[C@@H](C)O)[C@@H](C)O [Analog 24] (Palmitoyl-SRAHQHS[Nle]ETRTPDINPAWYTGRGIRPVGRY-NH2)	–	248%	22%	–	1120%
